Literature values as cited in paper PMC10090446, “Population pharmacokinetic analysis and dosing optimization of polymyxin B in critically ill patients” (Frontiers in Pharmacology, 2023).
Positions of bridges follow the written chain, without caps; N, C: chain ends. Non-standard residues stand in square brackets, D forms with d. Residues, ends and D or L forms follow the SMILES beside them. *: point of attachment. X1 = CC[C@H](C)CCCCC(=O)*; Dab = NCC[C@H](N)C(=O)O

Settings: critically ill patients; ref Ye et al., 2022; cited from earlier work
Source text: Over the last decade, more pathogenic bacteria have developed resistance, making many first-line antibiotics ineffective against infections ([Mohapatra et al., 2021]). Polymyxins were used extensively as salvage therapeutic agents for combating multidrug-resistant gram-negative bacteria (MDR-GNB) infections ([Falagas et al., 2021]). […] These specific physiolog ...

For `CC[C@H](C)CCCCC(=O)N[C@@H](CCN)C(=O)N[C@H](C(=O)N[C@@H](CCN)C(=O)N[C@H]1CCNC(=O)[C@H]([C@@H](C)O)NC(=O)[C@H](CCN)NC(=O)[C@H](CCN)NC(=O)[C@H](CC(C)C)NC(=O)[C@@H](Cc2ccccc2)NC(=O)[C@H](CCN)NC1=O)[C@@H](C)O` [polymyxin B] (X1-[Dab]T[Dab][Dab][Dab][dF]L[Dab][Dab]T; lactam 4-C), the “rate of reaching the standard polymyxin B exposure AUC at a typical clinical dose” value is given as “approximately 54.3%”.
